According to patent EP0200794A1, “Derivatives of ubiquinone, process for their preparation and pharmaceutical compositions containing them” (MAGIS FARMACEUTICI S.p.A., priority 1985, dated 1986):

Tests used:
[1] = tested on: rats of Sprague-Dawley stock; assay: Chronic toxicity; type: in vivo; settings: Sprague-Dawley rats of both sexes, oral and intravenous way, 50 mg/kg per day for three months
Method: The chronic toxicity of the new derivatives has been studied by oral and intravenous way in the rats of Sprague-Dawley stock of both sexes, of body weight of about 210 g. The new derivatives, used as drops or in aqueous solution, have been administred to groups of 10 animals (5 males and 5 females). The tests have been carried out in parallel with equivalent amounts of ubiquinone (hydroalcoholic solution). The doses have been of 50 mg/kg per day for three months.

[2] = Light stability in oral preparations; type: physicochemical

For `COC1=C(OC)C(=O)C(C/C=C(\C)CC/C=C(\C)CC/C=C(\C)CC/C=C(\C)CC/C=C(\C)CC/C=C(\C)CC/C=C(\C)CC/C=C(\C)CC/C=C(\C)CCC=C(C)C)=C(C)C1=O` [ubiquinone, Ubiquinone(10)], the “toxic effects (chronic toxicity)” value [1] was “No toxic effects”.
For Ubiquinone bisulphite [Example 1], the “stability under the effect of the light” value [2] was “high stability”.
